Assay results published in patent EP0334956A1, “HEMOLYSIS INHIBITOR AND MEDICAL RESIN COMPOSITION, MEDICAL IMPLEMENT, AND BLOOD-PRESERVING FLUID CONTAINING THE SAME” (KAO CORPORATION, priority 1986, dated 1988).
Counter-ions that a name gives are not always drawn. Like-named read-outs stand apart in the source and are kept apart here.

Legend:
[1] = tested on: human concentrated red cells; test: Hemolysis of stored CRC, reagent added as Tween 80/physiological saline emulsion; plasma hemoglobin by TMB method; type: cell-based; conditions: for Hemoglobin concentration in plasma: Table 1, emulsion, 4°C, 4 weeks; for hemolysis depressing capacity (in words): summary of Tables 1 through 6 (emulsion and direct addition)
Procedure: Isopropyl isotridecyl maleate was added to a 2000ug/ml polyoxyethylene monooleate (reagent-grade product of Wako Junyaku K.K. marketed under trademark designation of "Tween 80")/physiological saline mixed solution in such an amount to be contained therein in a final concentration of 4mM. A 0.2ml aliquot of the resultant emulsion was added to a human concentrated red cells (hereinafter referred to as "CRC") adjusted in advance to a hematocrit value of about 70% so as to be contained therein in a final concentration indicated in Table 1. The resulting liquid was placed in a stoppered polypropylene tube and left standing at rest at 4°C for 4 weeks. At the end of this standing, it was tested for plasma hemoglobin concentration by the TMB method (Clin. Chem., 23, 749-(1977)).
An emulsion was prepared by following the procedure of Example 1, except that isopropyl decyl maleate was used in place of isopropyl-isotridecyl maleate. A CRC sample incorporating the emulsion was left standing and thereafter tested for plasma hemoglobin concentration.
Emulsions were prepared by following the procedure of Excample 1, except that di-2-ethylhexyl phthalate (Control 1) and diisopropyl maleate, a carboxylic ester compound deviating from the scope of the present invention (Control 2) were respectively used in place of isopropyl isotridecyl maleate. CRC samples severally incorporating the emulsions were left standing and, thereafter, tested for plasma hemoglobin concentration.
Glycerine-l-butyl-3-isostearyl ether was added to a 2000 ug/ml polyoxyethylene monooleate (regent-grade product of Wako Junyaku K.K. marketed under trademark designation of "Tween 80")/ physiological saline mixed solution so as to be contained therein in a final concentration of 4 mM. A 0.2ml aliquot of the resultant emulsion was added to CRC adjusted in advance to a hematocrit value of about 70% so as to be contained therein in a final concentration indicated in Table 3. The resultant liquid was placed in a stoppered polypropylene tube and left standing at 4°C for 4 weeks. Thereafter, it was tested for plasma hemoglobin concentration by following the procedure of Example 1.
An emulsion was prepared by following the procedure of Example 5, except that glycerine-1,3-dioctyl ether was used in place of glycerine- l-butyl-3-isostearyl ether. A CRC sample incorporating the resultant emulsion was left standing and, thereafter, tested for plasma hemoglobin concentration. Controls 7 and 8
Emulsions were prepared by following the procedure of Example 5, except that di-2-ethylhexyl phthalate (Control 7) and glycerine monooctyl ether, an ether compound deviating from the scope of the present invention, (Control 8) were respectively used in place of glycerine-l-butyl-3-isostearyl ether. CRC samples incorporating the emulsions were left standing and, thereafter, tested for plasma hemoglobin concentration.
Isopropyl isolaurate was dispersed in a 2000 ug/ml poloxyethylene monooleate (reagent-grade product of Wako Junyaku K.K. marketed under trademark designation of "Tween 80")/physiological saline mixed solution so as to be contained therein in a concentration of 4 mM. A 0.2-ml aliquot of the resultant emulsion was added to CRC adjusted in advance to a hematocrit value of about 70% so as to be contained therein in a final concentration indicated in Table 5. The resultant liquid was placed in a stoppered polypropylene tube and left standing at 4°C for 4 weeks. Thereafter, it was tested for plasma hemoglobin concentration by following the procedure of Example 1.
An emulsion was prepared by following the procedure of Example 9, except that 2-ethylhexyl isostearate was used in place of isopropyl isolaurate. A CRC sample incorporating the resultant emulsion was left standing and, thereafter, tested for plasma hemoglobin concentration.

[2] = tested on: CRC; test: Hemolysis of stored CRC, reagent added directly to CRC; plasma hemoglobin by TMB method; type: cell-based, human; set-up: unit not given here; conditions: Table 2, direct addition, 4°C, 4 weeks
Procedure: (§1) Isopropyl isotridecyl maleate was added to CRC adjusted in advance to a hematocrit value of about 70% so as to be contained threrein in a final concentration indicated in Table 2 and stirred gently. The resultant liquid was placed in a stoppered polypropylene tube and left standing at rest at 4°C for 4 weeks, while subjecting to gentle stirring per a week. Thereafter, it was tested for plasma hemoglobin concentration by following the procedure of Example 1.
By following the procedrue of Example 3, isopropyl decyl maleate was added to CRC in the place of isopropyl isotridecyl maleate. The resultant liquid was left standing and, thereafter, tested for plasma hemoglobin concentration.
CRC samples were obtained by following the procedure of Example 3, except that di-2-ethylhexyl phthalate (Control 4) and diisopropyl maleate, a carboxylic ester compound deviating from the scope of this invention, (Control 5) were respectively used in place of isopropyl isotridecyl maleate. The resultant liquids were left standing and, thereafter, tested for plasma hemoglobin concentration.
as §1, with “Glycerine-l-butyl-isostearyl ether” for “Isopropyl isotridecyl maleate”, “therein” for “threrein”, “4” for “2”, “standing” for “standing at rest”
A CRC sample was prepared by following the procedure of Example 7, except that glycerine-1,3-dioctyl ether was used in place of glycerine-1-butyl 3-isostearyl ether. The resultant liquid was left standing and, thereafter, tested for plasma hemoglobin concentration.
Emulsions were prepared by following the procedure of Example 7, excepting di-2-ethylhexyl phthalate (Control 10) and glycerine monooctyl ether, an ether compound deviating from the scope of the present invention, (Control 11) were respectively used in the place of glycerine-l-butyl-3-isostearyl ether. CRC samples incorporating the emulsions were left standing and, thereafter, tested for plasma hemoglobin concetnration.
as §1, with “Isopropyl isolaurate” for “Isopropyl isotridecyl maleate”, “contained therein” for “contained threrein”, “Table 4” for “Table 2”, “was place” for “was placed”, “standing” for “standing at rest”, “stirring par” for “stirring per”
An emulsion was prepared by following the procedrue of Example 11, except that 2-ethylhexyl isostearate was used in place of isopropyl isolaurate. A CRC sample incorporating the resultant emulsion was left standing and, thereafter, tested for plasma hemoglobin concentration.
Emulsions were prepared by following the procedure of Example 11, except that di-2-ethylhexyl phthalate (Control 16) and ethyl-2-ethylhexanoate, a monocarboxylic ester compound deviating from the scope of the present invention, (Control 17) were respectively used in place of isopropyl isolaurate. CRC samples incorporating the resultant emulsions therein were left standing and, thereafter, tested for plasma hemoglobin concentraiton.

[3] = tested on: concentrated human red cells; test: Hemolysis of CRC stored with blood preserving liquid (SAG solution/Tween 80 emulsion); type: cell-based; conditions: 4°C, 5 weeks
Procedure: An emulsion was produced by dissolving Tween 80 (reagent grade produced by Wako Junyaku K.K.) in a SAG solution (containing 140 mM of NaCl, 1.25 mM of adenine and 50 mM of glucose) so as to be contained therein in a concentration of 600 µg/ml adding 12 mM isopropyl isotridecyl maleate to the resultant solution, and stirring the resultant mixture for uniform dispersion. In a stoppered polypropylene tube, a mixture of 1.0 ml of the emulsion prepared as described above and 2.0 ml of a liquid of concentrated human red cells adjusted in advance to a hematocrit value of about 70% was left standing at 4°C for 5 weeks. The resultant liquid was tested for free hemoglobin concentration in plasma by following the procedure of Example 1.
An emulsion was prepared by dissolving Tween 80 (reagent grade product of Wako Junyaku K.K.) in a SAG liquid so as to be contained therein in a concentration of 600 µg/ml, adding 12 mM of glycerine-l-butyl-3-isostearyl ether and stirring the resultant mixture for 'uniform dispersion. In a stoppered polypropylene tube, a mixture of 1.0 ml of the emulsion prepared as described above and 2.0 ml of CRC adjusted in advance to a hematocrit value of about 70% was left stnading at 4°C for 5 weeks. At the end of this standing, the CRC liqud was tested for change of free hemoglobin concentration in plasma by following the procedure of Example 1.
An emulsion was prepared by dissolving Tween 80 (reagent grade product of Wako Junyaku K.K.) in a SAG liquid so as to be contained therein in a concentration of 600 ug/ml, adding 12 mM of isopropyl isolaurate to the resultant solution, and stirring the resultant mixture for uniform dispersion. In a stoppered polypropylene tube, a mixture of 1.0 ml of the emulsion prepared as described above and 2.0 ml of CRC adjusted in advance to a hematocrit value of about 70% and then left standing at 4°C for 5 weeks. At the end of the satnding, the liquid was tested for free hemoglobin concentraiton in plasma by following the procedure of Example 1. The results are shown in Talbe 24.

[4] = tested on: human platelet rich plasma; test: Platelet aggregation in platelet rich plasma (Aggrecoder); type: cell-based; conditions: 40 mM methanol solution added in 1/100, room temperature 2 hours, relative to blank; for Ratio of platelet aggregation: 400 µM; for activity at 400 µM: Homo sapiens, Platelet, 2 h, read-out: Ratio of platelet aggregation
Procedure: A 40 mM methanol solution of isopropyl isotridecyl maleate (Example 13), a 40 mM methanol solution of glycerine-l-butyl-3-isostearyl ether (Example 14), a 40 mM methanol solution of isopropyl isolaurate (Example 15), a 40 mM methanol solution of di-2-ethylhexyl phthalate (Control 19) and methanol containing no added compound (Control 20) were severally added to a human platelet rich plasma (count of platelets about 300,000/mm ) in a fixed amount of 1/100, left standing at room temperature for 2 hours, and tested for platelet aggregation by the use of an instrument (product of Kyoto Daiichikagaku K.K. marketed under "Aggrecoder").
The percentage of transmittance of light through the solution of platelet rich plasma containing a given sample to the maximum transmittance of light through the same solution of platelet rich plasma not containing the sample (blank) was reported as the ratio of aggregation of the sample. As aggregation inducers, 5 µM ADP (adenosine diphosphoric acid) and 5 ug/ml collagen were used.

[5] = aggregation inducer 5 µg/ml collagen

Compound | Hemoglobin concentration in plasma ([1]; final concentration 0.4 mM) [Mg/ml] | Hemoglobin concentration in plasma ([1]; final concentration 4.0 mM) [Mg/ml] | hemolysis depressing capacity (in words) [1] | Hemoglobin concentration in plasma ([2]; final concentration 0.4 mM) | Hemoglobin concentration in plasma ([2]; final concentration 4.0 mM) | also measured
CC(C)OC(=O)/C=C\C(=O)OC(C)C [Diisopropyl maleate, reference compound] | 124 | 138 | possessed virtually no ability to prevent hemolysis or conversely caused hemolysis | 135 | 160 | –
CCCCC(CC)C(=O)OCC (stereo not shown) [Ethyl-2-ethylhexanoate, reference compound] | – | – | possessed virtually no ability to prevent hemolysis or conversely caused hemolysis | – | – | –
CCCCCCCCOCC(O)CO (stereo not shown) [Glycerine monooctyl ether, reference compound] | – | – | possessed virtually no ability to prevent hemolysis or conversely caused hemolysis | – | – | –
CCCCCCCCCCOC(=O)/C=C\C(=O)OC(C)C [Isopropyl decyl maleate] | 41 | 43 | – | 95 | 99 | –
CC(C)CCCCCCCCC(=O)OC(C)C [Isopropyl isolaurate] | – | – | – | – | – | Concentration of Free Hemoglobin in Plasma ([3]; Table 24, final concentration of the additive in CRC 0.4 mM): 86 mg/dL; Concentration of Free Hemoglobin in Plasma ([3]; Table 24, final concentration of the additive in CRC 4.0 mM): 230 mg/dL; Ratio of platelet aggregation ([4]; aggregation inducer 5 µM ADP): 99.3%; Ratio of platelet aggregation [4, 5]: 101.6%
CC(C)CCCCCCCCCCOC(=O)/C=C\C(=O)OC(C)C [Isopropyl isotridecyl maleate] | 35 | 33 | – | 90 | 95 | activity at 400 µM ([4]; aggregation inducer 5 µM ADP): 94.3%; activity at 400 µM [4, 5]: 94.5%
Glycerine-1-butyl-3-isostearyl ether | – | – | – | – | – | Concentration of Free Hemoglobin in Plasma ([3]; Table 23, final concentration of the additive in CRC 0.4 mM): 71 mg/dL; Concentration of Free Hemoglobin in Plasma ([3]; Table 23, final concentration of the additive in CRC 4.0 mM): 102 mg/dL; Ratio of platelet aggregation ([4]; aggregation inducer 5 µM ADP): 101.0%; Ratio of platelet aggregation [4, 5]: 103.1%
